{"source": "patent US20240049707A1", "about": "“PESTICIDE COMPOSITIONS OF LICOCHALCONE C” (METABOLIC INSIGHTS LTD., priority 2020, published 2024)", "key": {"[1]": {"test_system": "Pseudomonas syringae", "assay": "Microplate based screening of bioactivity against Pseudomonas syringae", "assay_type": "cell-based", "settings": "10 μl of 250 ppm solution + 40 μl inoculum, activity grade x repeats x days of activity/168 x 100", "method": "Pseudomonas Suspension Preparation: • 1) Grow Pseudomonas on LBA plates at 28° C. for 2 days to get a single colony • 2) Transfer a single colony using a sterile toothpick into a 50 ml sterile tube containing 5 ml LB and grow for 24 at 28° C. and 150 RPM • 3) Chill the tube in the fridge for 1 h • 4) Add 7.5 ml of fridge cold, sterile, glycerol solution to the tube—to get 60% glycerol solution • 5) Mix well but gently to get perfect mixing—use vortex at 1000 RPM • 6) Aliquot 100 μl of bacteria suspension in 60% glycerol into 1.5 ml tubes—each aliquot should be enough for screening of 10 microplates • 7) Store the bacteria suspension in 60% glycerol at −20° C.\nPseudomonas Suspension Preparation for Bioactivity Screening Experiment: • 1) Take 1.5 ml tube with 100 μl frozen Pseudomonas suspension from the freezer and thaw it on ice • 2) Prepare in the hood 50 ml tubes with 40 ml fridge cold LB • 3) Mix 40 μl of bacteria suspension with 40 ml fridge cold LB in a 50 ml tube. This amount is enough for activity screening of 10 microplates • 4) Use this suspension for bioactivity screening experiments […]"}, "[2]": {"test_system": "Pythium aphanidermatum", "assay": "Microplate based screening of bioactivity against Pythium aphanidermatum", "assay_type": "cell-based", "settings": "10 μl of 250 ppm solution + 40 μl inoculum, activity grade x repeats x days of activity/252 x 100", "method": "Grow Pythium aphanidermatum on SCH in 90 mm petri plates to get sporulating hyphae. Each plate will produce 50 ml of zoospores suspension which will be enough for bioactivity screening for ten 96-well plates.\nAdd the same volume (as the suspension) sterile fridge cold 2:PDBC to get 500-2000 spores/ml inoculum. This dilution will result in the amount of 25-100 zoospores in each well. […]\nScreening of Plates: • 1) Read out the plate at […]: 3d, 7d, 14d and 21d following the assay start • 2) Calculate the difference of absorbance between each readout and the readout at zero time • 3) Calculate the percentage of growth inhibition of each well at each time point. […]"}}}
{"smiles": "COc1c(/C=C/C(=O)c2ccc(O)cc2)ccc(O)c1CC=C(C)C", "note": "[Licochalcone C, (E)-3-[4-hydroxy-2-methoxy-3-(3-methylbut-2-enyl)phenyl]-1-(4-hydroxyphenyl)prop-2-en-1-one]", "values": [{"measurement": "Relative Activity value (%)", "setting": "[1]", "value": 50, "unit": "%"}, {"measurement": "Relative Activity value (%)", "setting": "[2]", "value": 100, "unit": "%"}]}
